Test system: Corticium sasakii (syn. Rhizoctonia solani)
Experiment: Activity against sheath blight on rice caused by Corticium sasakii (protective spray, pot test)
Format: in vivo
Conditions: for Efficacy in % of the untreated control: individual active compound, rice, evaluated after 11 days, untreated control 90% infection
Protocol: The active compounds, separately or jointly, were prepared as a stock solution with 0.25% by weight of active compound in acetone or DMSO. 1% by weight of the emulsifier Uniperol® EL (wetting agent having emulsifying and dispersing action based on ethoxylated alkylphenols) was added to this solution, and the solution was diluted with water to the desired concentration.
Use example—Activity against sheath blight on rice caused by Corticium sasakii (syn. Rhizoctonia solani) Pots of rice plants of the cultivar “Tai-Nong 67” were sprayed to runoff point with an aqueous suspension having the concentration of active compound stated below. The next day, oat grains infected with Corticium sasakii were placed into the pots (in each case 5 grains per pot). The plants were then placed in a chamber at 26° C. and maximum atmospheric humidity. After 11 days, the sheath blight on the untreated but infected control plants had developed to such an extent that the infection could be determined visually in %.
Evaluation is carried out by determining the infected plants in percent. These percentages were converted into efficacies.
The efficacy (E) is calculated as follows using Abbot's formula: E=(1−α/β)·100 α corresponds to the fungicidal infection of the treated plants in % and β corresponds to the fungicidal infection of the untreated (control) plants in % An efficacy of 0 means that the infection level of the treated plants corresponds to that of the untreated control plants; an efficacy of 100 means that the treated plants are not infected.
The expected efficacies of the mixtures of active compounds are determined using Colby's formula [R. S. Colby, Weeds 15, 20-22 (1967)] and compared with the observed efficacies.
Colby's formula: E=x+y−x·y/100
E expected efficacy, expressed in % of the untreated control, when using the mixture of the active compounds A and B at the concentrations a and b x efficacy, expressed in % of the untreated control, when using active compound A at the concentration a y efficacy, expressed in % of the untreated control, when using active compound B at the concentration b

Row | SMILES | Efficacy in % of the untreated control (1 ppm in the spray liquor) | Efficacy in % of the untreated control (4 ppm in the spray liquor) | Effectiveness against sheath blight, comparison in words (summary of the test results)
1 | CC1CCN(c2c(-c3c(F)cccc3Cl)c(Cl)nc3ncnn23)CC1 (single isomer, unassigned) [B] | 0% | 72% | activity comparable to that of compound I
2 | CC1CCN(c2c(-c3c(F)cc(F)cc3F)c(Cl)nc3ncnn23)CC1 [I, 5-chloro-7-(4-methylpiperidin-1-yl)-6-(2,4,6-trifluorophenyl)-[1,2,4]tri-azolo[1,5-a]pyrimidine] | 33% | 67% | –
3 | CC(Cc1ccc(C(C)(C)C)cc1)CN1C[C@@H](C)O[C@@H](C)C1 (stereo partly drawn) [II, 4-[3-(4-tert-butylphenyl)-2-methylpropyl]-2,6-dimethylmorpholine] | 0% | 0% | –
4 | CC1CCN(c2c(-c3c(F)cccc3Cl)c(Cl)nc3ncnn23)CC1 (single isomer, unassigned) [A] | 0% | 0% | –
